{
  "source": "paper PMC9879403",
  "about": "“Oncolytic strategy using new bifunctional HDACs/BRD4 inhibitors against virus-associated lymphomas” (PLOS Pathogens, 2023)",
  "key": {"[1]": {"system": "HDACs", "experiment": "HDACs signaling by Western blot (H3K9Ac, H4K9Ac, Acetyl-tubulin)", "format": "cell-based"}, "[2]": {"system": "KSHV", "format": "cell-based"}, "[3]": {"system": "JSC-1", "experiment": "WST-1 cytotoxicity assay, JSC-1 (KSHV+ PEL)", "format": "cell-based", "settings": "72 h", "from_the_text": "(§1) Fig 2 Identification of newly synthesized dual inhibitors with anti-PEL activities. (A) The binding mode of (+)-JQ1 with BRD4^BD1 (PDB: 3MXF). BRD4^BD1 is shown as hot pink cartoon with gray surface. Asn140 in BRD4^BD1 is shown as sticks and colored in following pattern: atom C hot pink, atom N dark blue, and atom O yellow. (+)-JQ1 is shown as sticks and colored in following patten: atom C hot pink, atom N dark blue, atom O yellow, atom S golden, and atom Cl green. The solvent exposed region (SEG) of (+)-JQ1 are indicated with white arrow. (B) The binding modes of SAHA and entinostat with HDAC2 (PDB: 3MAX). HDAC2 is shown as blue cartoon with gray surface. Asp181 and His183 in HDAC2 are shown as sticks and colored in following pattern: atom C blue, atom N dark blue, and atom O yellow. The catalytic zinc ion in the active site of HDAC2 is shown as black sphere. SAHA is shown as sticks and colored in following pattern: atom C green, atom N dark blue, and atom O yellow. Entinostat is shown as sticks and colored in following pattern: atom C hot pink, atom N dark blue, and atom O yellow. The SEG of SAHA or entinostat is indicated with white arrow. Hydrogen bonds (H-bonds) are presented by red dash lines. (C) The HDACs/BRD4 dual inhibitors 002-011 were designed by fusing the key pharmacophores of (+)-JQ1 (pink) and HDAC inhibitors (blue), SAHA or entinostat, via various chemical linkers (green). (D) Anti-PEL activities of the new compounds. Five KSHV positive and two KSHV negative lymphoma cell lines were treated with indicated concentrations of these compounds for 72 h. Then the cytotoxicity was determined using the WST-1 assay. (+)-JQ1, SAHA and entinostat were used for the comparisons as single inhibitors. The CC50 for each compound was calculated using GraphPad Prism 5.0 software. Error bars represent S.D. for 3 independent experiments.\nFig 4 Identification of anti-PEL activities for compound 009 stereoisomers. (A) The chemical structures of anti-HDACs/BRD4 bifunctional molecules 009P1 and 009P2, as well as anti-HDACs or anti-BRD4 mono-functional molecules 009N1, 009N2, 009N3, and 009N4. (B-C) Four KSHV+ PEL cell lines were treated with indicated concentrations of 009P1, 009P2 or 009N1-N4 for 72 h, then the cytotoxicity was determined using the WST-1 assay. (D-I) BCBL-1 cells were treated with these compounds at the respective 2× CC50 for 24 h, then cell cycle (D-F) and apoptosis (G-I) were measured by flow cytometry analysis. Error bars represent S.D. for 3 independent experiments, ** = p<0.01 (vs vehicle control).\n(§2) The cell viability following treatment with compounds was assessed by the WST-1 assay (Roche, Indianapolis, Indiana, USA) according to the manufacturer’s protocol as described previously. The absorbance signal was measured using a microplate reader (Biotek Synergy 2). The 50% cytotoxic concentration (CC50) for each compound was calculated from these dose-response curves using the software GraphPad Prism v5.0. Data were normalized as the fold change compared to the DMSO control."}, "[4]": {"system": "BCBL-1 cells", "experiment": "PEL xenograft model (BCBL-1 cells i.p.)", "description": "(A) Plasma concentrations of (+)-JQ1, SAHA, or 009P1 after a single administration of 50 mg per kg body (i.p. injection) were presented as mean ± SD (n = 3 mice per time point). (B-E) NOD/SCID mice were injected i.p. with BCBL-1 cells. 72 h later, the compounds or vehicle were administered i.p. as described in the Methods, and weights were recorded weekly. At the end of the treatment period, the splenic tissues were collected from the vehicle or compound treated mice, compared and processed with the H&E and IHC staining. (F) Plasma concentrations of 009P1 after a single administration of 50 mg per kg body (oral gavage) were presented as mean ± SD (n = 3 mice per time point). (G-I) NOD/SCID mice were injected i.p. with BCBL-1 cells. 72 h later, the compounds or vehicle were administered orally as described in the Methods, and weights were recorded weekly.\nIn all NOD/SCID mice, 6–8-week-old, male (Jackson Laboratory, Ellsworth, Maine, USA), 1 × 10^7 BCBL-1 cells in 200 μL RMPI-1640 without FBS were injected intraperitoneally and then mice were randomized into treatment groups of 6 mice as described previously. The tested compounds or vehicle was administered initially at 72 h after BCBL-1 injections, and continued once daily, 2 days per week for 3 weeks. Weights were recorded weekly as a surrogate measure of tumor progression. At the end of experiment, the spleens of mice were excised for immunoblots and immunohistochemical analyses.\nFormalin-fixed, paraffin-embedded tissues were microtome-sectioned to a thickness of 4 μm and placed on electromagnetically charged slides. Immunohistochemistry was performed as described previously, and the c-Myc and H3K9Ac antibodies were purchased from Abcam. Images were collected using an Olympus BX61 microscope equipped with a high resolution DP72 camera and CellSense image capture software."}, "[5]": {"system": "KSHV", "experiment": "Viral DNA levels in PEL cells by qPCR", "format": "cell-based"}, "[6]": {"experiment": "WST-1 cytotoxicity assay, BJAB (KSHV negative lymphoma)", "format": "cell-based", "settings": "human; 50% cytotoxic concentration, 72 h, WST-1; read-out: KSHV negative lymphomas CC50, BJAB", "from_the_text": "as §1, §2"}, "[7]": {"experiment": "Toxicity study, oral administration at 100 mg/kg"}, "[8]": {"system": "BJAB.219", "experiment": "WST-1 cytotoxicity assay, BJAB.219 (KSHV-infected lymphoma)", "format": "cell-based", "settings": "72 h, read-out: KSHV-infected lymphomas CC50, BJAB.219", "from_the_text": "as §1\nBCBL-1 and iSLK.219 cells were kindly provided by Dr. Pinghui Feng (University of Southern California). BL-41, BJAB, BCP-1, BC-1, BC-3, JSC-1, HUVEC cells were purchased from American Type Culture Collection (ATCC), and cultured as recommended by the manufacturer. For making BJAB.219 cells, BJAB cells were infected with rKSHV.219 stock by spinoculation as previously reported by centrifugation at 1500×g for 60 min [31]. Then, puromycin (10 μg/ml) was added into the medium at 72 h post-infection and the medium containing puromycin was replaced twice a week. After 6-week high concentration of puromycin selection, BJAB.219 cells were then cultured in the medium with 0.5 μg/ml puromycin.\nThe cell viability following treatment with compounds was assessed by the WST-1 assay (Roche, Indianapolis, Indiana, USA) according to the manufacturer’s protocol as described previously. The absorbance signal was measured using a microplate reader (Biotek Synergy 2). […]"}, "[9]": {"experiment": "WST-1 cytotoxicity assay, BL-41 (KSHV negative lymphoma)", "format": "cell-based", "settings": "human; 50% cytotoxic concentration, 72 h, WST-1; read-out: KSHV negative lymphomas CC50, BL-41", "from_the_text": "as §1, §2"}, "[10]": {"settings": "read-out: KSHV-infected lymphomas CC50, JSC-1"}},
  "note": "Like-named read-outs stand apart in the source and are kept apart here.",
  "data": [
    {"smiles": "Cc1sc2c(c1C)C(c1ccc(Cl)cc1)=N[C@@H](CC(=O)O[C@H](C)c1ccc(C(=O)Nc3ccccc3N)cc1)c1nnc(C)n1-2", "note": "[009P1, (R)-1-(4-((2-aminophenyl)carbamoyl)phenyl)ethyl 2-((S)-4-(4-chlorophenyl)-2,3,9-trimethyl-6H-thieno[3,2-f][1,2,4]triazolo[4,3-a][1,4]diazepin-6-yl)acetate]", "values": [
      {"measurement": "H3K9Ac, H4K9Ac and Acetyl-tubulin protein levels", "setting": "[1]; BCBL-1 cells, 48 h, Western blot", "result": "increased"},
      {"measurement": "Expression of viral genes (LANA, RTA, ORF26)", "setting": "[2]", "result": "significantly increased"},
      {"measurement": "CC50", "setting": "[3]; read-out: CC50, JSC-1", "result": 300, "unit": "nM"},
      {"measurement": "PEL tumor progression (ascites formation, spleen enlargement)", "setting": "[4]; i.p., 20 mg/kg", "result": "dramatically suppressed PEL tumor progression"},
      {"measurement": "Tumor infiltration into the spleen (H&E)", "setting": "[4]; i.p., 20 mg/kg", "result": "only diffuse small tumor nodules"},
      {"measurement": "Visible toxicity in mice (abnormal weight loss)", "setting": "[4]; i.p., 20 mg/kg", "result": "not observed"},
      {"measurement": "Tumor burden in mice (ascites formation, spleen enlargement)", "setting": "[4]; oral administration, 20 mg/kg", "result": "effectively repressed tumor burden"},
      {"measurement": "Viral DNA levels", "setting": "[5]", "result": "slightly increased"}
    ]},
    {"smiles": "Cc1sc2c(c1C)C(c1ccc(Cl)cc1)=N[C@@H](CC(=O)OC(C)(C)C)c1nnc(C)n1-2", "note": "[(+)-JQ1, reference compound]", "values": [
      {"measurement": "CC50 at 72 h", "setting": "[6]", "result": 1110, "unit": "nM"},
      {"measurement": "Toxicity in the mice", "setting": "[7]", "result": "severe toxicity"},
      {"measurement": "CC50", "setting": "[8]", "result": "~120", "unit": "nM"},
      {"measurement": "CC50 at 72 h", "setting": "[9]", "result": 680, "unit": "nM"},
      {"measurement": "CC50", "setting": "[3]; [10]", "result": 41, "unit": "nM"},
      {"measurement": "Tumor infiltration into the spleen (H&E)", "setting": "[4]; i.p., 50 mg/kg", "result": "slightly reduced"},
      {"measurement": "Visible toxicity in mice (abnormal weight loss)", "setting": "[4]; i.p., 50 mg/kg", "result": "visible toxicity"}
    ]},
    {"smiles": "O=C(CCCCCCC(=O)Nc1ccccc1)NO", "note": "[SAHA, suberoylanilide hydroxamic acid, reference compound]", "values": [
      {"measurement": "CC50 at 72 h", "setting": "[6]", "result": 3340, "unit": "nM"},
      {"measurement": "H3K9Ac, H4K9Ac and Acetyl-tubulin protein levels", "setting": "[1]", "result": "upregulated"},
      {"measurement": "CC50", "setting": "[8]; 50% cytotoxic concentration, WST-1", "result": 560, "unit": "nM"},
      {"measurement": "CC50 at 72 h", "setting": "[9]", "result": 3940, "unit": "nM"},
      {"measurement": "CC50", "setting": "[3]; [10]", "result": 680, "unit": "nM"},
      {"measurement": "Viral DNA levels", "setting": "[5]", "result": "obviously increased"}
    ]}
  ]
}
